This passage reports Activity and IC50 results from ChEMBL document CHEMBL2385046, “Dihydrooxazines As Inhibitors of BACE-1 or BACE-2” (ACS Med Chem Lett, 2013).

Test [1] deals with Rattus norvegicus. The experiment in a line: Antialzheimer activity in Sprague-Dawley rat assessed as lowering of amyloid beta level in CSF at 10 mg/kg, po after 4 hrs relative to vehicle-treated control. The format is functional.
Test [2] deals with Rattus norvegicus. The experiment in a line: Antialzheimer activity in Sprague-Dawley rat assessed as lowering of amyloid beta level in forebrain at 10 mg/kg, po after 4 hrs relative to vehicle-treated control. The format is functional.
A further test addresses Beta-secretase (BACE) (Homo sapiens, UniProt Q9Y5Z0+P56817). The experiment in a line: Inhibition of BACE1/BACE2 (unknown origin) transfected in CHO cells assessed as release of amyloid beta (1 to 40) after 24 hrs by immunoassay. The format is cell-based.
A further test deals with T1, Beta-secretase 2 (Homo sapiens, UniProt Q9Y5Z0).
T1 sequence (Q9Y5Z0 whole entry): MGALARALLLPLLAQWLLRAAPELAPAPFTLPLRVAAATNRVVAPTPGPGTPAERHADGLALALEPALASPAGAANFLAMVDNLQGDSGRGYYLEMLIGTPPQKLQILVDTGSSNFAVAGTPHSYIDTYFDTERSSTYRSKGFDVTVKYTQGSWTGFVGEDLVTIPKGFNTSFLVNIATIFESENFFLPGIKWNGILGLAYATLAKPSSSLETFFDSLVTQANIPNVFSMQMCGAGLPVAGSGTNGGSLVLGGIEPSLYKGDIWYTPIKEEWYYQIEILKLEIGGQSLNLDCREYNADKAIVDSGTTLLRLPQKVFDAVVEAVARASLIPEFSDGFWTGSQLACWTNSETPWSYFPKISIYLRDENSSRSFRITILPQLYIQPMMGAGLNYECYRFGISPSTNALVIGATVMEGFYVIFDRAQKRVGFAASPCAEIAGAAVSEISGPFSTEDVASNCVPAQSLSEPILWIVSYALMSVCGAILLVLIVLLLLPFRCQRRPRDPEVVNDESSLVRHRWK
The experiment in a line: Inhibition of recombinant human BACE2 extracellular domain expressed in baculovirus using Q-C(HS03)-lle-Asp-Leu-Ala-Val-Leu-Asp-HN-CH2-CH2-Mca as substrate incubated for 1 hr measured every 1 min for 15 mins by fluorescence assay.

The next test addresses Beta-secretase 1 (Homo sapiens, UniProt P56817). The experiment in a line: Inhibition of recombinant human BACE1 extracellular domain expressed in baculovirus using Q-C(HS03)-lle-Asp-Leu-Ala-Val-Leu-Asp-HN-CH2-CH2-Mca as substrate incubated for 1 hr measured every 1 min for 15 mins by fluorescence assay.

Chain of Beta-secretase 1 (P56817 whole entry, the tested form may be a part): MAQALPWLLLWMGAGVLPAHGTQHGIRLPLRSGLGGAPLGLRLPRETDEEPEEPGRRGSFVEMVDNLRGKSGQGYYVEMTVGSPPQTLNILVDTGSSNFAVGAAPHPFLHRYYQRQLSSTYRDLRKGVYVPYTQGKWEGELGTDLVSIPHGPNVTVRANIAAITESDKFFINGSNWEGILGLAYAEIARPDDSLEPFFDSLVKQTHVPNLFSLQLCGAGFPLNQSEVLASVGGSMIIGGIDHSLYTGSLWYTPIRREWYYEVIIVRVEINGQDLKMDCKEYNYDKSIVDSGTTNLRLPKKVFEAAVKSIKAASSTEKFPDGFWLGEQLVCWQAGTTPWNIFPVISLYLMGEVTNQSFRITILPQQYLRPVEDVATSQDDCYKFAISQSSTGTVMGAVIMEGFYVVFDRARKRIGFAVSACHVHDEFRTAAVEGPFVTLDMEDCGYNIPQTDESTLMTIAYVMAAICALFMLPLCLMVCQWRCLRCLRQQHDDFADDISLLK

`CC1(C)OC(N)=N[C@](C)(c2nc(NC(=O)c3ncc(C#N)cc3Cl)ccc2F)C1(F)F`: the Activity in the test on Rattus norvegicus [1] was -35.3%; in the test with Rattus norvegicus [2], -20%.

On to `C[C@]1(c2nc(NC(=O)c3ncc(C(F)(F)F)cc3Cl)ccc2F)N=C(N)OCC1(F)F`, for which the Activity in the test on Rattus norvegicus [1] is on record as -67.9%; in the test with Rattus norvegicus [2] it was -63.6%.

Broadly, the IC50 is the midpoint of a concentration-inhibition curve. Turning to `C[C@]1(c2nc(NC(=O)c3nn(C(F)F)cc3Cl)ccc2F)N=C(N)OCC1(F)F`, the Activity in the test with Rattus norvegicus [1] is -55.2%; in the test with Rattus norvegicus [2], -46.6%. For the same compound, the IC50 on Beta-secretase (BACE) worked out at 13 nM.

With `C[C@]1(c2nc(NC(=O)c3ncc(Cl)cc3Cl)ccc2F)N=C(N)OCC1(F)F`, the IC50 at Beta-secretase (BACE) was determined as 12 nM.

As for `C[C@]1(c2nc(NC(=O)c3ncc(OCC(F)F)nc3N)ccc2F)N=C(N)OCC1(F)F`, the IC50 at Beta-secretase (BACE) is 440 nM.

Regarding `C[C@]1(c2nc(NC(=O)c3ccc(C#N)cn3)ccc2F)N=C(N)OCC1(F)F`, the IC50 stood at 7 nM on Beta-secretase (BACE), 66 nM on Beta-secretase 2 and 12 nM at Beta-secretase 1.

With `C[C@]1(c2nc(NC(=O)c3ncc(C#N)cc3Cl)ccc2F)N=C(N)OCC1(F)F`, the results for the Activity with Rattus norvegicus [1] and with Rattus norvegicus [2] were -70.7% and -67.1%, respectively. Further, the IC50 at Beta-secretase (BACE) amounted to 8 nM.
